From the NIST ThermoML archive (doi:10.1021/je700672f)

Test: xn = mol fraction of the nth substance listed
Details: 101 kPa, Liquid

OCCOCCO [diethylene glycol] + O
Details | mass density [kg/m3] | viscosity [mPa·s]
283.15 K, x1 = 0.0255 | 1019.73 | –
283.15 K, x1 = 0.0565 | 1040.15 | –
283.15 K, x1 = 0.1027 | 1063.34 | –
283.15 K, x1 = 0.1966 | 1091.18 | –
283.15 K, x1 = 0.301 | 1106.34 | –
283.15 K, x1 = 0.3989 | 1113.62 | –
283.15 K, x1 = 0.5006 | 1117.88 | –
283.15 K, x1 = 0.6011 | 1120.39 | –
283.15 K, x1 = 0.7003 | 1121.98 | –
283.15 K, x1 = 0.8051 | 1123.07 | –
283.15 K, x1 = 0.892 | 1123.64 | –
283.15 K, x1 = 1 | 1124.24 | –
288.15 K, x1 = 0.0255 | 1018.61 | –
288.15 K, x1 = 0.0565 | 1038.42 | –
288.15 K, x1 = 0.1027 | 1060.91 | –
288.15 K, x1 = 0.1966 | 1088.01 | –
288.15 K, x1 = 0.301 | 1102.88 | –
288.15 K, x1 = 0.3989 | 1110.06 | –
288.15 K, x1 = 0.5006 | 1114.29 | –
288.15 K, x1 = 0.6011 | 1116.8 | –
288.15 K, x1 = 0.7003 | 1118.39 | –
288.15 K, x1 = 0.8051 | 1119.47 | –
288.15 K, x1 = 0.892 | 1120.05 | –
288.15 K, x1 = 1 | 1120.65 | –
293.15 K, x1 = 0.0255 | 1017.27 | 1.429
293.15 K, x1 = 0.0565 | 1036.53 | 2.223
293.15 K, x1 = 0.1027 | 1058.39 | 3.639
293.15 K, x1 = 0.1966 | 1084.81 | 7.452
293.15 K, x1 = 0.301 | 1099.4 | 12.6
293.15 K, x1 = 0.3989 | 1106.48 | 17.48
293.15 K, x1 = 0.5006 | 1110.68 | 22.22
293.15 K, x1 = 0.6011 | 1113.19 | 26
293.15 K, x1 = 0.7003 | 1114.79 | 29.46
293.15 K, x1 = 0.8051 | 1115.87 | 32.26
293.15 K, x1 = 0.892 | 1116.45 | 34.04
293.15 K, x1 = 1 | 1117.05 | 36.43
298.15 K, x1 = 0.0255 | 1015.72 | –
298.15 K, x1 = 0.0565 | 1034.5 | –
298.15 K, x1 = 0.1027 | 1055.77 | –
298.15 K, x1 = 0.1966 | 1081.56 | –
298.15 K, x1 = 0.301 | 1095.89 | –
298.15 K, x1 = 0.3989 | 1102.89 | –
298.15 K, x1 = 0.5006 | 1107.07 | –
298.15 K, x1 = 0.6011 | 1109.59 | –
298.15 K, x1 = 0.7003 | 1111.19 | –
298.15 K, x1 = 0.8051 | 1112.27 | –
298.15 K, x1 = 0.892 | 1112.86 | –
298.15 K, x1 = 1 | 1113.47 | –
303.15 K, x1 = 0.0255 | 1013.97 | 1.115
303.15 K, x1 = 0.0565 | 1032.33 | 1.674
303.15 K, x1 = 0.1027 | 1053.07 | 2.629
303.15 K, x1 = 0.1966 | 1078.28 | 5.148
303.15 K, x1 = 0.301 | 1092.36 | 8.358
303.15 K, x1 = 0.3989 | 1099.29 | 11.4
303.15 K, x1 = 0.5006 | 1103.45 | 14.15
303.15 K, x1 = 0.6011 | 1105.97 | 16.34
303.15 K, x1 = 0.7003 | 1107.58 | 18.48
303.15 K, x1 = 0.8051 | 1108.67 | 20
303.15 K, x1 = 0.892 | 1109.27 | 21.19
303.15 K, x1 = 1 | 1109.88 | 22.09
308.15 K, x1 = 0.0255 | 1011.83 | –
308.15 K, x1 = 0.0565 | 1030.02 | –
308.15 K, x1 = 0.1027 | 1050.27 | –
308.15 K, x1 = 0.1966 | 1074.94 | –
308.15 K, x1 = 0.301 | 1088.8 | –
308.15 K, x1 = 0.3989 | 1095.67 | –
308.15 K, x1 = 0.5006 | 1099.82 | –
308.15 K, x1 = 0.6011 | 1102.36 | –
308.15 K, x1 = 0.7003 | 1103.97 | –
308.15 K, x1 = 0.8051 | 1105.06 | –
308.15 K, x1 = 0.892 | 1105.68 | –
308.15 K, x1 = 1 | 1106.29 | –
313.15 K, x1 = 0.0255 | 1009.99 | 0.959
313.15 K, x1 = 0.0565 | 1027.57 | 1.298
313.15 K, x1 = 0.1027 | 1047.39 | 1.984
313.15 K, x1 = 0.1966 | 1071.56 | 3.716
313.15 K, x1 = 0.301 | 1085.22 | 5.847
313.15 K, x1 = 0.3989 | 1092.03 | 7.761
313.15 K, x1 = 0.5006 | 1096.18 | 9.506
313.15 K, x1 = 0.6011 | 1098.73 | 10.93
313.15 K, x1 = 0.7003 | 1100.35 | 12.22
313.15 K, x1 = 0.8051 | 1101.45 | 13.2
313.15 K, x1 = 0.892 | 1102.09 | 13.93
313.15 K, x1 = 1 | 1102.7 | 14.56
318.15 K, x1 = 0.0255 | 1007.73 | –
318.15 K, x1 = 0.0565 | 1025.01 | –
318.15 K, x1 = 0.1027 | 1044.41 | –
318.15 K, x1 = 0.1966 | 1068.13 | –
318.15 K, x1 = 0.301 | 1081.61 | –
318.15 K, x1 = 0.3989 | 1088.37 | –
318.15 K, x1 = 0.5006 | 1092.53 | –
318.15 K, x1 = 0.6011 | 1095.08 | –
318.15 K, x1 = 0.7003 | 1096.71 | –
318.15 K, x1 = 0.8051 | 1097.83 | –
318.15 K, x1 = 0.892 | 1098.49 | –
318.15 K, x1 = 1 | 1099.11 | –
323.15 K, x1 = 0.0255 | 1005.37 | 0.754
323.15 K, x1 = 0.0565 | 1022.33 | 1.031
323.15 K, x1 = 0.1027 | 1041.36 | 1.545
323.15 K, x1 = 0.1966 | 1064.65 | 2.783
323.15 K, x1 = 0.301 | 1077.97 | 4.231
323.15 K, x1 = 0.3989 | 1084.69 | 5.509
323.15 K, x1 = 0.5006 | 1088.85 | 6.694
323.15 K, x1 = 0.6011 | 1091.42 | 7.635
323.15 K, x1 = 0.7003 | 1093.07 | 8.477
323.15 K, x1 = 0.8051 | 1094.21 | 9.115
323.15 K, x1 = 0.892 | 1094.88 | 9.635
323.15 K, x1 = 1 | 1095.51 | 10.03
328.15 K, x1 = 0.0255 | 1002.86 | –
328.15 K, x1 = 0.0565 | 1019.53 | –
328.15 K, x1 = 0.1027 | 1038.21 | –
328.15 K, x1 = 0.1966 | 1061.13 | –
328.15 K, x1 = 0.301 | 1074.29 | –
328.15 K, x1 = 0.3989 | 1080.98 | –
328.15 K, x1 = 0.5006 | 1085.16 | –
328.15 K, x1 = 0.6011 | 1087.74 | –
328.15 K, x1 = 0.7003 | 1089.41 | –
328.15 K, x1 = 0.8051 | 1090.57 | –
328.15 K, x1 = 0.892 | 1091.26 | –
328.15 K, x1 = 1 | 1091.91 | –
333.15 K, x1 = 0.0255 | 1000.22 | 0.62
333.15 K, x1 = 0.0565 | 1016.62 | 0.849
333.15 K, x1 = 0.1027 | 1034.99 | 1.236
333.15 K, x1 = 0.1966 | 1057.55 | 2.147
333.15 K, x1 = 0.301 | 1070.58 | 3.202
333.15 K, x1 = 0.3989 | 1077.25 | 4.103
333.15 K, x1 = 0.5006 | 1081.43 | 4.917
333.15 K, x1 = 0.6011 | 1084.04 | 5.534
333.15 K, x1 = 0.7003 | 1085.74 | 6.12
333.15 K, x1 = 0.8051 | 1086.93 | 6.492
333.15 K, x1 = 0.892 | 1087.63 | 6.874
333.15 K, x1 = 1 | 1088.3 | 7.22
338.15 K, x1 = 0.0255 | 997.46 | –
338.15 K, x1 = 0.0565 | 1013.61 | –
338.15 K, x1 = 0.1027 | 1031.68 | –
338.15 K, x1 = 0.1966 | 1053.92 | –
338.15 K, x1 = 0.301 | 1066.84 | –
338.15 K, x1 = 0.3989 | 1073.49 | –
338.15 K, x1 = 0.5006 | 1077.69 | –
338.15 K, x1 = 0.6011 | 1080.33 | –
338.15 K, x1 = 0.7003 | 1082.06 | –
338.15 K, x1 = 0.8051 | 1083.27 | –
338.15 K, x1 = 0.892 | 1083.99 | –
338.15 K, x1 = 1 | 1084.68 | –
343.15 K, x1 = 0.0255 | 994.57 | 0.527
343.15 K, x1 = 0.0565 | 1010.51 | 0.71
343.15 K, x1 = 0.1027 | 1028.29 | 1.011
343.15 K, x1 = 0.1966 | 1050.24 | 1.703
343.15 K, x1 = 0.301 | 1063.06 | 2.514
343.15 K, x1 = 0.3989 | 1069.69 | 3.15
343.15 K, x1 = 0.5006 | 1073.93 | 3.731
343.15 K, x1 = 0.6011 | 1076.59 | 4.217
343.15 K, x1 = 0.7003 | 1078.36 | 4.617
343.15 K, x1 = 0.8051 | 1079.6 | 4.863
343.15 K, x1 = 0.892 | 1080.34 | 5.121
343.15 K, x1 = 1 | 1081.05 | 5.369
348.15 K, x1 = 0.0255 | 991.57 | –
348.15 K, x1 = 0.0565 | 1007.27 | –
348.15 K, x1 = 0.1027 | 1024.84 | –
348.15 K, x1 = 0.1966 | 1046.51 | –
348.15 K, x1 = 0.301 | 1059.24 | –
348.15 K, x1 = 0.3989 | 1065.88 | –
348.15 K, x1 = 0.5006 | 1070.14 | –
348.15 K, x1 = 0.6011 | 1072.84 | –
348.15 K, x1 = 0.7003 | 1074.63 | –
348.15 K, x1 = 0.8051 | 1075.91 | –
348.15 K, x1 = 0.892 | 1076.67 | –
348.15 K, x1 = 1 | 1077.4 | –
353.15 K, x1 = 0.0255 | 988.5 | 0.465
353.15 K, x1 = 0.0565 | 1004.07 | 0.606
353.15 K, x1 = 0.1027 | 1021.3 | 0.848
353.15 K, x1 = 0.1966 | 1042.72 | 1.392
353.15 K, x1 = 0.301 | 1055.38 | 2.043
353.15 K, x1 = 0.3989 | 1062.02 | 2.502
353.15 K, x1 = 0.5006 | 1066.32 | 2.942
353.15 K, x1 = 0.6011 | 1069.05 | 3.283
353.15 K, x1 = 0.7003 | 1070.89 | 3.593
353.15 K, x1 = 0.8051 | 1072.2 | 3.818
353.15 K, x1 = 0.892 | 1072.99 | 4.024
353.15 K, x1 = 1 | 1073.74 | 4.139
